The results in this text go back to the Deep4Chem optical property database.

This data set can be described thus: solvent given as SMILES.

On to `CCOC(=O)CCOc1ccc(C(c2c(C)[nH]c3ccccc23)c2c(C)[nH]c3ccccc23)cc1OC`, for which the absorption maximum by setting is: (in C1CCCCC1) 291 nm; (in CC#N) 289 nm; (in CO) 289 nm.
With `CC(C)(C)c1cc2c(c(C(C)(C)C)c1)O[B-](F)(F)[n+]1c-2nc(-c2ccccc2)c2ccccc21`, the absorption maximum (in Cc1ccccc1) is recorded as 410 nm.
In the case of `CC(C)(C)OC(=O)CN1CCN(c2ccc3c(-c4ccc(I)cc4)c4ccc(=[N+]5CCN(CC(=O)OC(C)(C)C)CC5)cc-4oc3c2)CC1`, the absorption maximum (in ClCCl) came to 564 nm.
For the compound `COc1ccc(C2=[N+]3C(=Nc4c(-c5ccccc5)cc(-c5ccc(OC)cc5)n4[B-]3(F)F)C(c3ccccc3)=C2)cc1`, the absorption maximum was 688 nm (in ClC(Cl)Cl) and 688 nm (in ClCCl).
In the case of `O=C(c1ccc(-n2c3ccc(-c4ccccc4)cc3c3cc(-c4ccccc4)ccc32)cc1)c1ccc(-n2c3ccc(-c4ccccc4)cc3c3cc(-c4ccccc4)ccc32)cc1`, the absorption maximum (in Cc1ccccc1) came out at 370 nm.
The same measure, in the same setting: for `CCCCCCCCC(=O)Oc1cc2[nH]c(cc2CCOC)c2nc(ccc3[nH]c(cc3CCOC)c3nc1C(CCOC)=C3)C(CCOC)=C2` the value was 647 nm.
Take `Cc1nc2cc(/C=C/c3ccc(N(C)C)cc3)ccc2nc1-c1ccccc1`: the absorption maximum (in C1COCCO1) was 415 nm, the absorption maximum (in CC#N) is 407 nm and the absorption maximum (in ClCCl) is recorded as 407 nm.
In turn, `CCOC(=O)c1c2c3c(ccc(OC)c3c3cc4c(cc13)[Si](C)(C)O[Si]4(C)C)N(C)C2=O` gave an absorption maximum (in CC#N) of 378 nm.
Compound `N#Cc1ccc(-c2cn3ccc[n+]3[n-]2)cc1` displayed an absorption maximum (in ClCCl) of 381 nm.
In turn, `O=C1c2ccccc2-c2ccccc21` yielded an absorption maximum (in C1CCCCC1) of 382 nm, an absorption maximum (in CC#N) of 377 nm, an absorption maximum (in CCO) of 379 nm and an absorption maximum (in c1ccccc1) of 380 nm.
For `O=c1oc2ccc(Cl)cc2cc1-c1cc2cc(Cl)ccc2o1`, the absorption maximum is, setting by setting: (in CC#N) 369 nm; (in CCOC(C)=O) 370 nm; (in CS(C)=O) 373 nm; (in Cc1ccccc1) 375 nm; (in O) 327 nm.
Regarding `COc1c2ccccc2c(OC)c2c(C#CC(C)(C)C)c3cc4ccccc4cc3c(C#CC(C)(C)C)c12`, for the setting “in ClCCl”, the absorption maximum was found to be 672 nm.
On to `N#Cc1ccc(C#Cc2ccc(C#Cc3ccccc3C#N)cc2C#N)cc1`, for which the absorption maximum (in ClC(Cl)Cl) stood at 340 nm.
As to `CN(C)c1cc(-c2ccc(C#Cc3ccncc3)cc2)cc2ccccc12`, the absorption maximum is, setting by setting: (in CC#N) 306.26 nm; (in CCO) 309.39 nm; (in ClCCl) 311 nm.
Compound `COc1cc2c(cc1OC)C1=C[C@H](c3ccc(C)cc3)C3(C(C#N)=C(C#N)N1CC2)c1cc(Br)ccc1-c1ccc(Br)cc13` yielded an absorption maximum (in ClCCl) of 315 nm.
`COc1ccc(-c2c3ccccc3c(-c3ccc(OC)cc3)c3cc4sc(C)cc4cc23)cc1` had an absorption maximum (in ClCCl) of 450 nm.
As to `CNc1cc2nc3cc(Cl)c(Cl)cc3nc2cc1NC`, the absorption maximum (in CCO) is on record as 442 nm.
`Cc1ccc(C2CC(=O)Oc3c2c2nc4ccc(C)cc4nc2c2ccccc32)cc1` (stereo unspecified): the absorption maximum (in ClC(Cl)Cl) is recorded as 411 nm.
For `Clc1cccc(-c2nc3sc4ccccc4c3s2)c1`, the absorption maximum (in CS(C)=O) is recorded as 351 nm.
With `COc1ccc(-n2nc(C(=O)N3CCCC3)c(N3CCCC3)n2)cc1`, the absorption maximum by setting is: (in CC#N) 328 nm; (in CCCCCC) 332 nm; (in CCO) 328 nm; (in CN(C)C=O) 334 nm; (in ClC(Cl)Cl) 331 nm.
In the case of `CCCCCCc1ccc2c(/C=N/c3cc(/N=C/c4c(O)ccc5cc(CCCCCC)ccc45)cc(/N=C/c4c(O)ccc5cc(CCCCCC)ccc45)c3)c(O)ccc2c1`, the absorption maximum is listed as 477 nm (in C1CCOC1), 474 nm (in CC#N), 480 nm (in Cc1ccccc1) and 479 nm (in ClCCl).
In the case of `O=P1(c2ccccc2)C2=C(c3ccccc31)C(c1ccccc1)(c1ccccc1)c1cc(N(c3ccccc3)c3ccccc3)ccc12` (stereo unspecified), the absorption maximum by setting is: (in CC#N) 427 nm; (in CO) 438 nm; (in Cc1ccccc1) 431 nm.
`O=[N+]([O-])c1ccc(C#Cc2ccc3ccc(C#Cc4ccc([N+](=O)[O-])cc4)cc3c2)cc1` gave an absorption maximum (in ClCCl) of 347 nm.
In the case of `CCn1c2ccc(/C=C/c3ccc4c(c3)c3cc(-c5nc6ccccc6s5)ccc3n4CC)cc2c2cc(-c3nc4ccccc4s3)ccc21`, the absorption maximum is, setting by setting: (in C1CCOC1) 361 nm; (in CCOC(C)=O) 360 nm.
In turn, `C(=C\c1cc(-c2ccccc2)c(/C=C/c2ccc(N(c3ccccc3)c3ccccc3)cc2)cc1-c1ccccc1)/c1ccc(N(c2ccccc2)c2ccccc2)cc1` gave an absorption maximum (in ClCCl) of 415 nm.
`CCCCCCOc1cc(C=C2C(=C(C#N)C#N)c3ccccc3C2=C(C#N)C#N)c(OCCCCCC)cc1C=C1C(=C(C#N)C#N)c2ccccc2C1=C(C#N)C#N` had an absorption maximum (in ClCCl) of 542 nm.
For `CCCCCCCCCCCCCCCC[n+]1ccc(/C=C/c2ccccc2O)cc1`, the absorption maximum runs as follows: (in C1COCCO1) 558.2 nm; (in CC(C)=O) 547 nm; (in CC(C)O) 520.4 nm; (in CCCCCC) 530.1 nm; (in CCCCO) 523.4 nm; (in CCCO) 518.9 nm. Besides, the absorption maximum runs as follows: (in CCO) 518.9 nm; (in CN(C)C=O) 549.1 nm; (in CO) 503.8 nm; (in CS(C)=O) 523.4 nm; (in Cc1ccccc1) 554.2 nm; (in ClC(Cl)(Cl)Cl) 548.4 nm. The absorption maximum is, setting by setting: (in ClC(Cl)Cl) 554.2 nm; (in ClCCl) 553.8 nm; (in c1ccccc1) 553.7 nm.
As to `CCCC1=CC2=C(c3c(C)cc(C)cc3C)c3cc(CCC)c(-c4ccc5ccc6cccc7ccc4c5c67)n3[B-](F)(F)[N+]2=C1c1ccc2ccc3cccc4ccc1c2c34`, the absorption maximum (in ClC(Cl)Cl) turned out to be 562 nm.
In turn, `C[n+]1cc2ccc3c[n+](C)cc4ccc(c1)c2c34` registered an absorption maximum (in CC#N) of 418 nm.
For `CC(C)[Si](C#Cc1c2cc3ccccc3cc2c(C#C[Si](C(C)C)(C(C)C)C(C)C)c2nc3ccccc3nc12)(C(C)C)C(C)C`, the absorption maximum reads like this: (in CCCCCC) 693 nm; (in ClCCl) 697 nm.
For the compound `CCCCOC(=O)/C(C#N)=C1\C(=CC2=[N+](C)c3ccccc3C2(C)C)C([O-])=C1C=C1N(C)c2ccccc2C1(C)C`, the absorption maximum (in ClC(Cl)Cl) is recorded as 691 nm.
On to `c1ccc2c(c1)Oc1ccccc1C21c2cc(-c3ccc4ccc5cccc6ccc3c4c56)ccc2-c2ccc(-c3ccc4ccc5cccc6ccc3c4c56)cc21`, for which the absorption maximum (in ClC(Cl)Cl) was determined as 364 nm.
For `O=C1c2ccccc2-c2c(-c3ccccc3)c(-c3ccccc3)c(-c3ccccc3)c3cccc1c23`, the absorption maximum was found to be 401 nm (in CC#N) and 407 nm (in CO).
In turn, `O=C1O/C(=C\c2ccccc2)c2ccccc21` came in with an absorption maximum (in CC#N) of 335 nm.
In the case of `Cc1ccc(-c2cc(-c3ccccc3Cl)c3c(N)nc(N4CCCC4)c(C#N)c3n2)cc1`, the absorption maximum runs as follows: (in CC#N) 414 nm; (in CC(C)=O) 422 nm; (in CC(C)O) 414 nm; (in CO) 416 nm; (in ClC(Cl)Cl) 418 nm; (in ClCCl) 422 nm. Where the note is “in c1ccccc1”, this compound showed an absorption maximum of 426 nm.
